Assays:
[1] = target: T1, human amylin (Homo sapiens, UniProt P10997); assay: Radiolabelled precipitation assay of amylin fibril formation; format: biochemical; set-up: Amylin is a 37-residue; C-terminally amidated peptide having a disulfide bridge between the cysteines at residues 2 and 7; purchased Bachem Calif; (Torrance, Calif.); host or cells: chemical synthesis; settings: 200 μM compound
T1 sequence (P10997 34-70 limits assumed): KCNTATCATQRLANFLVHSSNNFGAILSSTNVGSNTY
Method: Radiolabelled Precipitation Assays. The precipitation of radiolabelled human and rat amylin fibrils was used as an independent method to monitor assembly of amylin fibrils in the presence or absence of potential inhibitors of amylin fibril formation. […] Incubation mixtures were then centrifuged at either 16,000×g or 100,000×g, for 20 min, and the amount of [^3H]-human amylin remaining in the supernatant after centrifugation was determined (Beckman LSW 3801 β-counter, USA). Results were expressed as percentages of precipitable counts per minute, relative to total radioactivity in the supernatant.
Incorporation of [^3H]-amylin into amylin fibrils was followed for 24 hours. Human amylin fibrils were precipitated by centrifugation at either 16,000×g (FIG. 7A) or at 100,000×g (FIG. 7B). Rat amylin (10 μM) in the presence of [^3H]-rat amylin was used as a non-fibril forming control (♦) (FIG. 7A). The results are shown as the percentage of precipitable radioactive amylin, relative to total radioactivity in the supernatant at each time point. Each data point represents the mean±s.e.m of three separate reactions.
The incorporation of radioactive monomeric amylin into the human amylin fibrils as they form, can be used to measure the rate at which amylin fibrils form in the presence or absence of a potential inhibitory drug. Amylin fibrils can be separated from solution by centrifugation and the amount of radioactive amylin precipitated in the amylin fibril pellet is then used as a measure of the amount of amylin fibrils present at that time.
Thioflavin-T, although not polycyclic, is widely used in fluorescent assays to measure amylin fibril formation. Incorporation of radioactivity into the pellet of an aliquot of the reaction mixture centrifuged at 16,000×g, for 20 minutes was monitored over the time periods indicated. Rat amylin (10 μM) with [^3H]-rat amylin added was used as a non fibril forming control (∘) in each experiment. The results are shown as the percentage of precipitable radioactive amyloid, relative to total radioactivity in the supernatant at each time point. Each data point represents the mean±s.e.m of three separate experiments.

[2] = system: RINm5F cells
Method: Cell Culture and Cytotoxicity Assays. RINm5F cells were cultured in RPMI 1640 medium containing 10% fetal bovine serum, 290 μg/mL L-glutamine, 100 IU/mL penicillin and 100 μg/mL streptomycin. Cells were plated at a density of 15×1 cells per well, incubated for 48 h, rinsed with PBS and placed in fresh medium containing Congo red. Freshly prepared human amylin in Milli-Q water, was preincubated with Congo red for 30 min, then added to the cell culture medium to give a final concentration of 30 μM. Cells were treated for 22 h with human amylin in the presence or absence of 100 μM Congo red. Cell viability was determined by double-staining with calcein-AM and ethidium homodimer-1. Green fluorescence of live cells and red fluorescence marking nuclei of dead cells were simultaneously visualized using a Zeiss Axiovert S100 microscope equipped with a Zeiss filter set # 09. Photographs were taken at 400× magnification using a Zeiss AxioCam digital camera.
A. Representative fluorescence micrograph of RINm5F cells treated with 30 μM human amylin for 22 h and stained with calcein-AM and ethidium homodimer-1 to show live cells (green) and dead cells (red). […] B. A representative micrograph of RINm5F cells treated with 30 μM human amylin and 100 μM Congo red stained as above. […] The percentage of live cells was determined for cells treated for 22 h with vehicle; 30 μM human amylin; 30 μM human amylin in the presence of 100 μM Congo red; or 30 μM rat amylin. Experiments were repeated independently 10 times except for human amylin plus Congo red (A+CR) which was repeated five times. Error bars represent the s.e.m of live and dead cell counts over 6-12 fields per condition.

[3] = target: T1, human amylin; settings: 1200 μM compound (20-fold molar excess), 60 μM human amylin, 10 μM thioflavin-T, over 24 h (FIG. 3)
Method: Thioflavin-T binding fluorescent assays. The effects of various polycyclic compounds on islet amyloid formation were measured by fluorescence spectroscopy, using a SpectraMAX Gemini XS Fluorescence Spectrophotometer (Molecular Devices Corporation, Sunnyvale, Calif.). Excitation and emission maxima were set to 450 nm and 510 nm respectively using a cutoff filter at 495 nm. Thioflavin-T binds to amylin fibrils, but not to monomeric amylin (Goldsbury et al., (1999), J. Mol. Biol., 285:33-39). […] The rate of amylin fibril formation was determined by following thioflavin-T fluorescence in the presence or absence of the potential inhibitory drug. […] Background fluorescence by acridine and acridine orange in the absence of amylin was subtracted from the experimental results. The control preparation contained human amylin and thioflavin-T in the absence of drug. The rate of fluorescence enhancement under these conditions was used to compare amylin fibril formation in the absence and presence of the drug. All other experimental conditions were identical.
Tri-prolyl amylin and rat amylin with thioflavin-T were also used as additional controls.
Each data point represents the mean±s.e.m of three separate reactions.
Effect of chlorpromazine on enhancement of thioflavin-Tfluorescence by human amylin (FIG. 2). Chlorpromazine (700 μM) (π) was incubated in 10 mM tris p H 7.4, with monomeric human amylin (70 μM) in the presence of thioflavin-T (10 μM). The fluorescence of the reaction was monitored over 24 hours as described in the methods. […] Each data point represents the mean±s.e.m of three separate reactions.
Effect of selected polycylic compounds on enhancement of thioflavin-Tfluorescence by human amylin (FIG. 3). Acridine, acridine orange, neutral red and methylene blue are selected examples of fused tricyclic ring compounds. […] Compound structures are shown adjacent to the appropriate graph. […] Fluorescence was monitored over 24 h as described in the Methods. A preparation containing human amylin and thioflavin-T only (▪), was included as a comparison in the absence of drug. […] Each data point represents the mean±s.e.m of three independent experiments.

[4] = target: T1, human amylin; assay: Electron microscopy of human amylin fibrils; format: biochemical; set-up: Amylin is a 37-residue; C-terminally amidated peptide having a disulfide bridge between the cysteines at residues 2 and 7; purchased Bachem Calif; (Torrance, Calif.); host or cells: chemical synthesis; settings: 1200 μM compound, 60 μM human amylin, 10 mM tris pH 7.4, 24 h (FIG. 6)
Method: Electron Microscopy. […] Samples were removed at various time points and prepared for electron microscopy. Aliquots (8 μl) of the amylin fibril preparations were absorbed to glow-discharged carbon-coated collodion film on 200-mesh copper grids for 1 min. Grids were blotted, washed twice in droplets of deionised water and stained with 2% (w/v) uranyl acetate. Grids were examined in a Phillips Technai transmission electron microscope operated at 120 kV.
Samples were removed at various time points and prepared for electron microscopy according to the procedure described in the methods.
Electron Microscopy of human amylin fibrils in the presence and absence of quinacrine (FIG. 5). A 100 fold molar excess of quinacrine was incubated with human amylin. Samples were removed at various time points and prepared for electron microscopy according to the procedure described in the methods.
Electron Microscopy of human amylin fibrils in the presence and absence of selected polycyclic compounds (FIG. 6). […] Samples were removed and prepared for electron microscopy as described in the Methods. All experiments were performed in triplicate and the pictures above are representative of at least 6 photographs taken at each magnification.

Row | SMILES | level of precipitable amyloid ([1]; 10 μM human amylin, after 72 h) [%] | overall decrease in precipitable amyloid ([1]; 10 μM human amylin, after 72 h) [%] | intrinsic cytotoxicity of compound to RINm5F β cells [2] | enhancement of thioflavin-T fluorescence by human amylin [3] | effect on precipitable amyloid formation ([1]; 10 μM human amylin, 16,000×g (FIG. 8)) | morphology of human amylin fibrils (electron microscopy) [4]
1 | CN(C)c1ccc2cc3ccc(N(C)C)cc3nc2c1 [acridine orange] | 50 | 30 | cytotoxic | no increase in thioflavin-T enhanced fluorescence | – | –
2 | Cc1cc2nc3ccc(N(C)C)cc3nc2cc1N [neutral red] | – | – | cytotoxic | no increase in thioflavin-T enhanced fluorescence | small but significant reduction | still formed characteristic amylin fibrils
